Results: patent publication US5637690A, “Sulfate of n-acetylneuraminic acid homopolymer and processes for making and using the same” (Marukin Shoyu Co., Ltd., priority 1993, dated 1997)

Tests used:
[1] = tested on: HIV; test: Anti-HIV activity: HIV antigen positive MT-4 cells by immunofluorescence (Pharmacological Tests 1 and 3); assay type: cell-based
Description: (§1) A medium in which MT-4 cell [Miyoshi I. et al., Gann Monogr., 28, 219-228 (1982)] was included in a proportion of 2×10^5 cell/ml medium (RPMI-1640+10%FCS) was prepared. To each of 500 μl portion of the medium were added sulfated colominic acid obtained from examples 1 and 2 at a concentration shown in table 1. After two hours addition of the esters, HIV was infected to cells in each well in the proportion of 5×10^3 PFU/well. After 4 days from HIV infection, smear of MT-4 cell was prepared to detect HIV antigen positive cells by immunofluorescence (Harada S. et al., Science, 229, 563-566 (1985); Takeuchi Y., et al., Jpn. J. Cancer Res. (Gann), 78, 11-15 (1987)).
An anti-HIV activity of colominic acid which is a starting material in place of sulfated colominic acid was determined in the same manner as above.
(§2) In tables 1 and 3, a sample having a concentration of sulfated colominic acid of zero was regarded as control. In table 2, "--" indicates no toxicity.
(§3) In order to determine the minimum number of monomer unit of N-acetylneuraminic acid homopolymer, sulfate esters of formula (I) in which n is 1-6 were produced. A cytotoxicity and an anti-HIV activity of each sulfate ester were determined in the same manner as pharmacological tests 1 and 2.

[2] = tested on: MT-4 cell; test: Cytotoxicity on MT-4 cells (Pharmacological Tests 1, 2 and 3); assay type: cell-based; parameters: key to Toxicity: --: no cytotoxicity or no anti-HIV activity; key to Cytotoxicity: --: no toxicity; conditions: for Cytotoxicity: Table 2; for Toxicity: Table 4
Description: as §1, §2
A cytotoxicity of sulfated colominic acid was assayed in the same manner as Pharmacological Test 1. Specifically, after MT-4 cell prepared at a concentration of 1×10^5 cell/ml was cultured for 4 days in the presence of a variety of concentrations of sulfated colominic acid, the number of cells was counted. Cytotoxicity was evaluated by calculating a cell survival ratio in each final concentration of sulfated colominic acid taking as 100% the cell survival ratio of control, in which final concentration of sulfated colominic acid is zero.
as §3

## colominic acid [reference compound]
[1]; Table 2, 1-100 μg/ml
  anti-HIV activity (in words): does not have an anti-HIV activity
[1]; Table 2, final concentration 1 μg/ml
  Cell infection ratio: > 95%
[1]; Table 2, final concentration 3 μg/ml
  Cell infection ratio: > 95%
[1]; Table 2, final concentration 10 μg/ml
  Cell infection ratio: > 95%
[1]; Table 2, final concentration 30 μg/ml
  Cell infection ratio: > 95%
[1]; Table 2, final concentration 100 μg/ml
  Cell infection ratio: > 95%
[2]; final concentration 1 μg/ml
  Cytotoxicity: --
[2]; final concentration 3 μg/ml
  Cytotoxicity: --
[2]; final concentration 10 μg/ml
  Cytotoxicity: --
[2]; final concentration 30 μg/ml
  Cytotoxicity: --
[2]; final concentration 100 μg/ml
  Cytotoxicity: --

## sulfate ester of N-acetylneuraminic acid hexamer [DP-6-S]
[1]; Table 4, anti-HIV, MT-4 cells
  IC50: 20 µg/mL
[1]; Table 4, final concentration 0.1 μg/ml
  Cell infection ratio: > 95%
[1]; Table 4, final concentration 0.3 μg/ml
  Cell infection ratio: > 95%
[1]; Table 4, final concentration 1 μg/ml
  Cell infection ratio: > 95%
[1]; Table 4, final concentration 3 μg/ml
  Cell infection ratio: > 95%
[1]; Table 4, final concentration 10 μg/ml
  Cell infection ratio: 80%
[1]; Table 4, final concentration 30 μg/ml
  Cell infection ratio: 30%
[1]; Table 4, final concentration 100 μg/ml
  Cell infection ratio: < 5%
[2]; final concentration 0.1 μg/ml
  Toxicity: --
[2]; final concentration 0.3 μg/ml
  Toxicity: --
[2]; final concentration 1 μg/ml
  Toxicity: --
[2]; final concentration 3 μg/ml
  Toxicity: --
[2]; final concentration 10 μg/ml
  Toxicity: --
[2]; final concentration 30 μg/ml
  Toxicity: --
[2]; final concentration 100 μg/ml
  Toxicity: --
